Reference: PMC10017027, “Design and Synthesis of Novel HIV-1 NNRTIs with Bicyclic Cores and with Improved Physicochemical Properties” (Journal of Medicinal Chemistry, 2023)
In brackets after ≈: the same amount, converted by molar mass. Read-outs that look alike come from different tables or passages of the source.

Assays:
HIV-1 (IIIB strain) = test: MT-4 antiviral cytopathic effect assay, HIV-1 IIIB; format: cell-based; conditions: HIV-1 IIIB, WT
Procedure: (§1) The prepared compounds were tested for their anti-HIV-1 activity (Table 1). A viral cytopathic effect assay in MT-4 cells with HIV-1 IIIB virus was used to determine compound potency (EC50, 50% cell viability) in protecting virus induced cell killing. Compound cytotoxicity was assessed in MT-4 cells in the absence of virus (CC50, 50% cytotoxicity).
(§2) Compounds were tested in a high-throughput 384-well assay format for their ability to inhibit the virus replication-induced cytopathic effect in MT-4 cell cultures acutely infected with HIV-1 (IIIB strain), HXB2, HXB2-K103N, and HXB2-Y181C. Compounds were serially diluted (1:3) in DMSO on 384-well polypropylene plates and further diluted 200-fold into complete RPMI media (10% FBS, 1% P/S) using Biotek Micro Flow and an Agilent ECHO acoustic dispenser. Each plate contained up to eight test compounds, with negative (no drug control) and 5 μM AZT positive controls. MT-4 cells were further diluted in complete RPMI media and added to each plate using a Micro-Flo dispenser. After five days of incubation in a humidified and temperature-controlled incubator (37 °C), Cell Titer Glo (Promega) was added to the assay plates to quantify the amount of […]. EC50 and CC50 values were defined as the compound concentration that causes a 50% decrease in luminescence signal and were calculated using a sigmoidal dose-response model to generate curve fits.

in vitro = format: cell-based; conditions: human
Procedure: (§3) The prepared compounds were tested for their anti-HIV-1 activity (Table 1). A viral cytopathic effect assay in MT-4 cells with HIV-1 IIIB virus was used to determine compound potency (EC50, 50% cell viability) in protecting virus induced cell killing. Compound cytotoxicity was assessed in MT-4 cells in the absence of virus (CC50, 50% cytotoxicity). […] ETV contains bromo and amino substitutions on the DAPY core. […] Likely, with the smaller cyano arm I in 1, 3, and 5, the cores could be further elaborated to optimize the compound position in the pocket and to improve potency.
as §2

HIV-1 HXB2 = test: MT-4 antiviral cytopathic effect assay, HXB2 wild-type virus; format: cell-based
Procedure: as §1, §2

HIV-1 HXB2 K103N variant = test: MT-4 antiviral cytopathic effect assay, HXB2-K103N; format: cell-based; conditions: for EC50: Human immunodeficiency virus 1, HXB2, read-out: EC50 K103N
Procedure: as §3, §2

HIV-1 HXB2 Y181C variant = test: MT-4 antiviral cytopathic effect assay, HXB2-Y181C; format: cell-based; conditions: for EC50: Human immunodeficiency virus 1, HXB2, read-out: EC50 Y181C
Procedure: as §3, §2

[1] = Solubility assessment, shake-flask method; format: physicochemical; conditions: for solubility: shake-flask; for HCl sol / PBS sol / solubility thermodynamic: supplement CSV
Procedure: Compound solubility was measured at Analiza (Cleveland, OH) by the standard shake-flask method at pH 1.2 and 7.4 and quantitated by HPLC-UV.

[2] = MDCK permeability assay (A to B); format: in vitro ADME, Canine; conditions: dog, MDCK
Description: (§4) Compounds were further tested in a Madin–Darby Canine Kidney (MDCK) assay to evaluate their potential for oral absorption. […] Additionally, there was no trend for better permeability when comparing arm I versus arm II when matched with the same core. The size of the B ring had the greatest influence on Papp with the trend being five-membered > six-membered > seven-membered rings (Table 1).
(§5) cMdr1-KO cells were maintained in Dulbecco’s modified Eagle’s medium (DMEM) with sodium pyruvate and GlutaMax, supplemented with 1% Pen/Strep and 10% fetal bovine serum in an incubator set at 37 °C, 90% humidity, and 5% CO2. MDCKII- cMdr1-KO cells were grown to confluence over 3 days on 96-well PET plates with 1 μm pore size, polyester membrane (Corning 3392). Experiments were run using HBSS donor buffer from Invitrogen containing an additional 10 mM HEPES, 15 mM glucose, and 0.1% BSA adjusted to pH 7.4. The receiver well had HBSS buffer supplemented with 1% BSA, 10 mM HEPES, 15 mM glucose, and the pH was adjusted to 7.4. TEER values were read to test membrane integrity at the beginning of the assay. The experiment was started by the addition of dosing solutions containing test compounds. Samples were taken from the donor compartment at 0/120 min and from the receiver compartment at 120 min. Each compound was tested in two separate replicate wells. All samples were immediately collected in a 72:8:20 MeCN/MeOH:H2O mix to precipitate protein and stabilize the test compounds. Cells were dosed on the apical side to determine forward (A to B) permeability. To test for non-specific binding and compound instability, the total amount of drug was quantified at the end of the experiment and compared to the material present in the original dosing solution as a percentage of recovery. Samples were analyzed by RF-QToF.

[3] = Predicted clearance in human liver microsomes; format: in vitro ADME; conditions: pH 7.4, 1 μM compound, read-out: HLM CLint, pred (converted)
Procedure: Next, microsome stability was profiled in purified human liver microsomes (HLM).
Metabolic stability of compounds was assessed using HLM (Corning cat. 457117).[52] In this assay, 10 nL compounds at a concentration of 1 mM in 100% DMSO are dispensed into 384-well polypropylene plates using the Echo 550 acoustic liquid dispenser (Labcyte). Each plate contains 384 wells with a single test compound in each well.
A solution of HLM at 2 mg/mL in 100 mM K2HPO4/KH2PO4 pH 7.4 with 0.0225 mg/mL Alamethicin from Trichoderma viride (Sigma-Aldrich cat. A4665-10MG) was incubated on ice for 15 min. 5 μL of this solution was added to individual wells following 15 min incubation at room temperature; and supplemented with 5 μL NADPH Regenerating Solution of cofactors (Corning Gentest UGT Reaction Mix solutions A and B, cat. 451200 and 451220) containing 100 mM K2HPO4/KH2PO4 pH 7.4, 2.6 mM NADP^+, 6.6 mM glucose-6-phosphate, 6.6 mM MgCl2, 0.8 U/mL glucose-6-phosphate dehydrogenase, 0.1 mM sodium citrate, and 6.8 mM uridine diphosphate-glucuronic acid. The final concentration of analyte compounds at the beginning of the reactions was 1 μM. The reactions were incubated at 37 °C, and time points of 0, 5, 15, 30, 40, 50, 60, and 70 min were collected for further analysis. Background data were collected using reactions without analyte compounds.
Upon collection of the reaction time points, samples were quenched at the set time points with 30 μL of a solution of 72% acetonitrile, 8% methanol, 0.1% formic acid, 19.9% water, and labetalol as an internal standard (IS) at a concentration of 650 nM. Reaction plates were span in a centrifuge at a speed of 4000 rcf for 30 min and 4 °C, following a dilution of the 10 μL quenched reaction into 40 μL de-ionized water, yielding assay plates.
Samples were analyzed by a solid-phase extraction coupled with a quadrupole time-of-flight mass spectrometer, using an Agilent QToF 6530 RapidFire 360 system with C4 type A solid state cartridges. Analysis was performed in either positive or negative ionization modes. Mobile phases contained 0.1% formic acid in water for loading analytes onto solid state extraction cartridges, and 0.1% formic acid in acetonitrile for elution into the mass spectrometer in positive ionization mode, or 0.1% acetic acid in water for loading and 0.1% acetic acid in acetonitrile for extraction in negative ionization mode. Peak-area ratios of integrated counts for individual compounds to IS were plotted as a semi-logarithmic chart of log versus time. Initial, linear portion of decay was fitted to a linear regression equation to derive the half-time of a compound decay.
Pharmacological parameters for an analyte compound metabolism were calculated using the equations described in Table S2.
Table S2. Pharmacological parameters for an analyte compound metabolism were
calculated using the following equations:
Intrinsic Clearance (in Cl = ln 2
int, in vitro T1/2 ∗ Conc
Intrinsic Clearance Cl = Clint, in vitro ∗ Liver Mass ∗ Yield
Predicted Hepatic Cl = Clint ∗ QH
QH (Hepatic Blood Flow) = 1.3 L/hr/kg

[4] = Solubility assessment, shake-flask method; format: physicochemical; conditions: compared to the other compounds, in words
MDCKII-cMdr1-KO cells = test: MDCK permeability assay (A to B); format: in vitro ADME, Canine; conditions: in words
Description: as §4, §5

E138K = conditions: cell culture; cited from earlier work
[5] = fold change: ratio of potency against HXB2 K103N and parental HXB2
[6] = supplement CSV, fold change vs HXB2
[7] = fold change: ratio of potency against HXB2 Y181C and parental HXB2
[8] = HCl, pH 1.2, read-out: solubility HCl
[9] = phosphate-buffered saline, pH 7.4, read-out: solubility PBS
[10] = apparent permeability coefficient, A to B, pH 7.4

Compound	CC50 at 120 h (in vitro) [nM]	EC50 (HIV-1 HXB2 K103N variant) [nM]	K103N (FC) (HIV-1 HXB2 K103N variant; [5])	K103N (FC) (HIV-1 HXB2 K103N variant; [6])	EC50 (HIV-1 HXB2 Y181C variant) [nM]	Y181C (FC) (HIV-1 HXB2 Y181C variant; [7])	Y181C (FC) (HIV-1 HXB2 Y181C variant; [6])	solubility [1, 8] [µM]	solubility [1, 9] [µM]	HCl sol [1] [µM]	PBS sol [1] [µM]	Papp A→B at 120 min ([2]; supplement CSV) [×10⁻⁶ cm/s]	Papp A→B at 120 min [2, 10] [×10⁻⁶ cm/s]	CLint scaled at 1.167 h, 1 µM [3] [mL/min/kg]	permeability (Papp) in the MDCK assay (MDCKII-cMdr1-KO cells)	resistance conferred by E138K (E138K)	also measured
Cc1cc(/C=C/C#N)cc(C)c1N1CC(=O)Nc2cnc(Nc3ccc(C#N)cc3)nc21 [Compound 4, 4-[(8-{4-[(1E)-2-Cyanoeth-1-en-1-yl]-2,6-dimethylphenyl}-6-oxo-5,6,7,8-tetrahydropteridin-2-yl)amino]benzonitrile]	42400	2.8	1.2	1.2	4.9	2.0	2.0	6.5 (≈ 2.74 µg/mL)	1.8 (≈ 0.759 µg/mL)	6.5	1.8	4.2	4.2	16.3	–	–	EC50 (HIV-1 (IIIB strain); Human immunodeficiency virus 1, IIIB, MT4, protects 50% of MT-4 cells against HIV-1-induced cell killing, read-out: EC50 MT4): 2.6 to 3 nM; EC50 (HIV-1 (IIIB strain); protects 50% of MT-4 cells against HIV-1-induced cell killing, read-out: EC50 MT4): 2.7 nM; EC50 (HIV-1 HXB2; Human immunodeficiency virus 1, MT4, HIV-1 HXB2 wild-type, MT-4 cells, read-out: EC50 HXB2): 2.4 nM; solubility at pH 2 [4]: markedly reduced
Cc1cc(C#N)cc(C)c1Oc1nc(Nc2ccc(C#N)cc2)nc(N)c1Br [ETV, etravirine, reference compound]	7300	2.3	0.9	0.9	11.1	4.8	4.8	< 1	< 1	<1	<1	3.8	3.8	4.17	moderate	2–3 fold	EC50 (HIV-1 (IIIB strain); Human immunodeficiency virus 1, MT4, read-out: EC50 MT4, protects 50% of MT-4 cells against HIV-1-induced cell killing): 2.4 nM; EC50 (HIV-1 HXB2; Human immunodeficiency virus 1, HXB2, MT4, read-out: EC50 HXB2): 2.5 nM
Cc1cc(/C=C/C#N)cc(C)c1Nc1ccnc(Nc2ccc(C#N)cc2)n1 [RPV, rilpivirine, reference compound]	6500	1.5	1.3	1.3	3.8	3.2	3.2	> 100	< 1	–	–	4.6	4.6	14.3	moderate	2–3 fold	solubility thermodynamic ([1]; HCl, pH 1.2, read-out: HCl sol): > 100 µM; solubility thermodynamic ([1]; PBS, pH 7.4, aqueous buffer, read-out: PBS sol): < 1 µM
